Measurements published in US7776862B2, “Pyridyl and phenyl substituted piperazine-piperidines with CXCR3 antagonist activity” (Schering Corporation, priority 2005, dated 2010).

What follows are compounds tested against T1, human CXCR3 (N-delta 4) (Homo sapiens, UniProt P49682) (assay: Human CXCR3 (N-delta 4) scintillation proximity assay (SPA), [125I] IP-10 binding). Conditions: IC50 rating; Ba/F3-hCXCR3 (N-delta 4) membranes, 25 pM [125I] IP-10.
T1 construct: CD8 leader; Flag tag; expressed in transfected cells; membranes used
T1 sequence (P49682 5-368 limits assumed): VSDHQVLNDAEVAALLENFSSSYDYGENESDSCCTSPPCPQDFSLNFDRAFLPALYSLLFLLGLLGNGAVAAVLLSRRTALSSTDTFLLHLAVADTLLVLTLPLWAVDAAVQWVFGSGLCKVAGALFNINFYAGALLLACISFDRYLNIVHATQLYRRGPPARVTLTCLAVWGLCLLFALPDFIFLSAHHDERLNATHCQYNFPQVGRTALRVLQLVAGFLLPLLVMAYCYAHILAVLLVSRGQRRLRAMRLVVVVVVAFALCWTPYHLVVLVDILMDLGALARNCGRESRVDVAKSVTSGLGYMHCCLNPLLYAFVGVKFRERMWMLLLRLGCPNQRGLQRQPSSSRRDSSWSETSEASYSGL
Outline: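 IP-10 and compound titrations added together. The receptor source was SPA beads bearing membranes from Ba/F3 cells transfected with human CXCR3 (N-delta 4) carrying a CD8 leader and Flag tag.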

Row | SMILES | IC50 [nM]
1 | CC[C@H]1CN(c2ccc(CN)cn2)CCN1C1CCN(Cc2ccc(Cl)cc2)CC1 [compound 452] | > 100
2 | CCNC(=O)c1cnc(N2CCN(C3CCN(Cc4ccc(I)cc4)CC3)[C@@H](CC)C2)c(Cl)c1 [compound 218] | < 25
3 | O=C(NCc1ccc(Cl)c(Cl)c1)c1cnc(N2CCN(C3CCN(Cc4ccc(Cl)cc4)CC3)CC2)c(Br)c1 [compound 279] | 25 to 100
4 | N#Cc1ccc(CN2CCC(N3CCN(c4ncc(C(=O)NCc5ccccc5)cc4Cl)CC3)CC2)cc1 [compound 21] | > 100
5 | O=C(NCC(c1ccccc1)c1ccccc1)c1cnc(N2CCN(C3CCN(Cc4ccc(Cl)cc4)CC3)CC2)c(Br)c1 [compound 178] | > 100
6 | CC[C@H]1CN(c2ncc(C(C)=O)cc2Cl)CCN1C1CCN(Cc2ccc(Cl)cc2F)CC1 [compound 427] | 25 to 100
7 | O=C(NCc1ccc(Cl)cc1Cl)c1cnc(N2CCN(C3CCN(Cc4ccc(F)c(F)c4)CC3)CC2)c(Cl)c1 [compound 141] | 25 to 100
8 | O=C(NCc1ccc(Cl)cc1F)c1cnc(N2CCN(C3CCN(Cc4ccc(Cl)c(F)c4)CC3)CC2)c(Cl)c1 [compound 93] | > 100
9 | CCNC(=O)c1cnc(N2CCN(C3CCN(Cc4ccc(Cl)cc4F)CC3)[C@@H](C)C2)c(Cl)c1 [compound 251] | < 25
10 | O=C(NC1CCCC1)c1cnc(N2CCN(C3CCN(Cc4ccc(Cl)c(F)c4)CC3)CC2)c(Cl)c1 [compound 22] | > 100
11 | O=C(NCc1ccc(C(F)(F)F)cc1)c1cnc(N2CCN(C3CCN(Cc4ccc(Cl)cc4)CC3)CC2)c(Cl)c1 [compound 85] | > 100
12 | O=C(NCc1ccc(F)cc1)c1cnc(N2CCN(C3CCN(Cc4ccc(Br)cc4)CC3)CC2)c(Cl)c1 [compound 113] | 25 to 100
13 | O=C(NCc1cccc(F)c1)c1cnc(N2CCN(C3CCN(Cc4ccc([N+](=O)[O-])cc4)CC3)CC2)c(Cl)c1 [compound 94] | 25 to 100
14 | COc1ccc(CN2CCC(N3CCN(c4ncc(C(=O)NCc5ccc(F)cc5)cc4Cl)CC3)CC2)cc1 [compound 50] | > 100
15 | CC[C@H]1CN(c2ncc(CNS(=O)(=O)N(C)C)cc2Cl)CCN1C1CCN(Cc2ccc(Cl)cc2F)CC1 [compound 391] | < 25
16 | CNC(=O)c1cnc(N2CCN(C3CCN(C(=O)c4ccc(Cl)cc4)CC3)[C@@H](C)C2)c(Cl)c1 [compound 337] | > 100
17 | COc1ccc(CN2CCC(N3CCN(c4ncc(C(=O)NCc5cccc(F)c5)cc4Cl)CC3)CC2)cc1 [compound 30] | > 100
18 | O=C(NCc1cccc(Cl)c1)c1cnc(N2CCN(C3CCN(Cc4ccc([N+](=O)[O-])cc4)CC3)CC2)c(Cl)c1 [compound 148] | 25 to 100
19 | CC[C@H]1CN(c2ncc(C(=O)NC(C)C)cc2Cl)CCN1C1CCN(C(=O)c2ccc(C#N)cc2)CC1 [compound 287] | 25 to 100
20 | N#Cc1ccc(C(=O)N2CCC(N3CCN(c4ncc(C(=O)NCc5ccc(Cl)cc5F)cc4Cl)CC3)CC2)cc1 [compound 81] | > 100
21 | C[C@@H]1CN(c2ncc(C(=O)NCC3CCCCC3)cc2Cl)CCN1C1CCN(Cc2ccc(C#N)cc2)CC1 [compound 235] | < 25

Row | SMILES | IC50 [nM]
22 | CCOC(CNC(=N)c1cnc(N2CCN(C3CCN(C(=O)c4ccc(Cl)cc4)CC3)[C@@H](CC)C2)c(Cl)c1)OCC [compound 453] | > 100
23 | CC[C@H]1CN(c2ncc(C(=O)NC3CC3)cc2C)CCN1C1CCN(C(=O)c2ccc(Cl)cc2)CC1 [compound 461] | < 25
24 | C[C@H]1CN(c2ncc(C(=O)NCc3ccc(F)c(F)c3)cc2Cl)CCN1C1CCN(C(=O)c2ccc(C#N)cc2)CC1 [compound 248] | < 25
25 | O=C(NCc1cccnc1)c1cnc(N2CCN(C3CCN(Cc4ccc(Cl)cc4)CC3)CC2)c(Cl)c1 [compound 358] | > 100
26 | CC[C@H]1CN(c2ncc(CNS(=O)(=O)N(C)C)cc2Cl)CCN1C1CCN(Cc2ccc(Br)cc2F)CC1 [compound 384] | < 25
27 | CC(C)CNC(=O)c1cnc(N2CCN(C3CCN(Cc4ccc(Cl)cc4)CC3)CC2)c(Cl)c1 [compound 181] | > 100
28 | CC[C@H]1CN(c2ncc(C(=O)NC(C)C)cc2Cl)CCN1C1CCN(Cc2ccc(Cl)cc2)CC1 [compound 216] | < 25
29 | C[C@H]1CN(c2ncc(C(N)=O)cc2Cl)CCN1C1CCN(Cc2ccc(Cl)cc2)CC1 [compound 281] | 25 to 100
30 | CC[C@H]1CN(c2ncc(C(=O)NC)c3ccccc23)CCN1C1CCN(Cc2ccc(Cl)cc2F)CC1 [compound 363] | > 100
31 | N#Cc1ccc(C(=O)N2CCC(N3CCN(c4ncc(C(=O)NCc5ccc(F)c(F)c5)cc4Cl)CC3)CC2)cc1 [compound 51] | > 100
32 | CCNC(=O)NCc1cnc(N2CCN(C3CCN(Cc4ccc(Cl)cc4F)CC3)[C@@H](CC)C2)c(Cl)c1 [compound 368] | < 25
33 | CC/N=C(/NCC)c1cnc(N2CCN(C3CCN(Cc4ccc(Cl)cc4)CC3)[C@@H](C)C2)c(Cl)c1 [compound 439] | > 100
34 | CNC(=O)c1cnc(N2CCN(C3CCN(Cc4ccc(C(F)(F)F)cc4)CC3)[C@@H](C)C2)c(Cl)c1 [compound 301] | 25 to 100
35 | CC[C@H]1CN(c2ncc(CNC3=NCCN3)cc2Cl)CCN1C1CCN(Cc2ccc(Cl)cc2F)CC1 [compound 431] | 25 to 100
36 | O=C(NCc1cccc(Cl)c1)c1cnc(N2CCN(C3CCN(Cc4ccc(Cl)cc4)CC3)CC2)c(Cl)c1 [compound 84] | > 100
37 | O=C(NCc1ccc(F)c(F)c1)c1cnc(N2CCN(C3CCN(Cc4ccccc4)CC3)CC2)c(Cl)c1 [compound 362] | > 100
38 | O=C(NCc1ccc(F)c(F)c1)c1cnc(N2CCN(C3CCN(Cc4ccc(Cl)cc4)CC3)CC2)c(Br)c1 [compound 253] | < 25
39 | CC[C@H]1CN(c2ncc(CNS(C)(=O)=O)cc2Cl)CCN1C1CCN(Cc2ccc(Cl)cc2F)CC1 [compound 380] | < 25
40 | O=C(NCc1ccc(Cl)cc1)c1cnc(N2CCN(C3CCN(Cc4ccc(F)cc4F)CC3)CC2)c(Cl)c1 [compound 87] | > 100
41 | C[C@H]1CN(c2ncc(C(=O)NCc3ccc(F)c(F)c3)cc2Br)CCN1C1CCN(Cc2ccc(Cl)cc2)CC1 [compound 222] | < 25
42 | CC1(C)C2CCC(CNC(=O)c3cnc(N4CCN(C5CCN(Cc6ccc(Cl)cc6)CC5)CC4)c(Br)c3)C1C2 (stereo not drawn) [compound 179] | > 100

Row | SMILES | IC50 [nM]
43 | O=C(NCc1ccc(Cl)c(Cl)c1)c1cnc(N2CCN(C3CCN(Cc4ccc([N+](=O)[O-])cc4)CC3)CC2)c(Cl)c1 [compound 162] | < 25
44 | O=C(NCCOc1ccccc1)c1cnc(N2CCN(C3CCN(Cc4ccc(Br)cc4F)CC3)CC2)c(Cl)c1 [compound 23] | > 100
45 | CCNC(=O)c1cnc(N2CCN(C3CCN(C(=O)c4ccc(Cl)cc4)CC3)[C@@H](CC)C2)c(Cl)c1 [compound 246] | < 25
46 | CC(NC(=O)c1cnc(N2CCN(C3CCN(Cc4ccc(Cl)cc4)CC3)CC2)c(Cl)c1)c1ccc(Cl)cc1 (stereo not drawn) [compound 171] | 25 to 100
47 | O=C(NCc1ccc(C(F)(F)F)cc1)c1cnc(N2CCN(C3CCN(Cc4ccc([N+](=O)[O-])cc4)CC3)CC2)c(Cl)c1 [compound 98] | 25 to 100
48 | C[C@@H]1CN(c2ncc(C(=O)NCc3ccc(Cl)c(Cl)c3)cc2Cl)CCN1C1CCN(Cc2ccc(C#N)cc2)CC1 [compound 282] | 25 to 100
49 | CC[C@H]1CN(c2ncc(CN(C(=O)Nc3c(C)noc3C)C(=O)Nc3c(C)noc3C)cc2Cl)CCN1C1CCN(Cc2ccc(Cl)cc2F)CC1 [compound 445] | > 100
50 | COc1ccc(CN2CCC(N3CCN(c4ncc(C(=O)NCc5cccc(Cl)c5)cc4Cl)CC3)CC2)cc1 [compound 54] | > 100
51 | CC(c1ccc(Cl)cc1)N1CCC(N2CCN(c3ncc(C(=O)NCc4ccc(F)c(F)c4)cc3Cl)CC2)CC1 (stereo not drawn) [compound 46] | > 100
52 | CC[C@H]1CN(c2ncc(C(=O)NN)cc2Cl)CCN1C1CCN(C(=O)c2ccc(Br)cc2)CC1 [compound 342] | > 100
53 | CC(c1ccc(C#N)cc1)N1CCC(N2CCN(c3ncc(C(=O)NCc4ccc(F)c(F)c4)cc3Cl)CC2)CC1 (stereo not drawn) [compound 172] | > 100
54 | O=C(NCc1cccc(Cl)c1)c1cnc(N2CCN(C3CCN(Cc4ccc(F)c(F)c4)CC3)CC2)c(Cl)c1 [compound 118] | 25 to 100
55 | O=C(NCCOc1ccccc1)c1cnc(N2CCN(C3CCN(Cc4ccc(Cl)cc4)CC3)CC2)c(Br)c1 [compound 283] | 25 to 100
56 | O=C(NCc1ccc(Cl)cc1F)c1cnc(N2CCN(C3CCN(Cc4ccc(Br)cc4F)CC3)CC2)c(Cl)c1 [compound 27] | > 100
57 | COc1ccc(CN2CCC(N3CCN(c4ncc(C(=O)NCCOc5ccccc5)cc4Cl)CC3)CC2)cc1 [compound 331] | > 100
58 | O=C(NCc1ccc(C(F)(F)F)cc1)c1cnc(N2CCN(C3CCN(Cc4ccc(F)c(F)c4)CC3)CC2)c(Cl)c1 [compound 92] | > 100
59 | CC1CN(C2CCN(Cc3ccc(Cl)cc3)CC2)CCN1c1ncc(C(=O)NCCOc2ccccc2)cc1Cl (stereo not drawn) [compound 130] | 25 to 100
60 | O=C(NCc1ccc(F)c(F)c1)c1cnc(N2CCN(C3CCN(Cc4ccc(Cl)cc4Cl)CC3)CC2)c(Cl)c1 [compound 25] | > 100
61 | C[C@H]1CN(c2ncc(C(=O)NCc3ccc(F)c(F)c3)cc2Cl)CCN1C1CCN(C(=O)c2ccc(C#N)cc2)CC1 [compound 291] | 25 to 100
62 | O=C(NCc1ccc(C(F)(F)F)cc1)c1cnc(N2CCN(C3CCN(Cc4ccc(F)cc4)CC3)CC2)c(Cl)c1 [compound 66] | > 100
63 | CC[C@H]1CN(c2ncc(C(=O)NC)cc2Cl)CCN1C1CCN(C(=O)c2ccc(C#N)cc2)CC1 [compound 303] | 25 to 100
